Measured values published in patent publication US10940139B2, “Compounds that interact with the Ras superfamily for the treatment of cancers, inflammatory diseases, rasopathies, and fibrotic disease” (Shy Therapeutics LLC, priority 2017, dated 2021).

The compounds below were run on MIA-PACA2 pancreatic cancer cell lines (assay: Cell proliferation assay (CellTiter 96 AQueous One)). Details: Homo sapiens, MIA PaCa-2; MIA-PACA2, same assay as the % inhibition (standard conditions).
Assay type: cell-based
Method: Cell lines: Tumor-derived pancreatic cancer cell lines MIA-PACA2 were purchased from ATCC and grown in complete DMEM-High Glucose medium supplemented with penicillin (100 U/mL), streptomycin (100 μg/mL), and 10% heat-inactivated FBS at 37° C. in a humidified incubator with 5% CO2.
Method: Cells are plated at 1000 cells/well density in 96-wells plate, starved ON, and the next day tested small molecules are added to the cells in the final concentration of 30 μM with 0.3% DMSO 3 hours prior to 10% FBS addition. After serum addition cells are incubated for 6 days at 37° C. in a humidified incubator with 5% CO2. For IC50 value determination, serial dilutions of compounds were added to cells under the same conditions.
Assay: At the end of the incubation period, cell cultures are tested using the CellTiter 96® AQueous One Solution Cell Proliferation Assay kit (Promega Corporation, Madison, Wis.) according to the manufacturer specifications. Briefly, assay is performed by adding 20 μl of the CellTiter 96 Aqueous One Solution Reagent directly to culture wells, followed by for 1-4 hours incubation at 37° C. in a humidified incubator with 5% CO2. At the end of incubation time, absorbance at 492 nm is recorded with the 96-well plate reader Eppendorf AF2200, and degree of small molecule-dependent proliferation inhibition is calculated from raw data assuming No Serum cells value as 100%.
`O=c1nc(-c2ccccn2)[nH]c2ccsc12` [drawing 1494] showed an IC50 greater than 1000 nM. Work on `COCC(C)Nc1nc(-c2ccccn2)nc2sc(C)c(-c3ccccc3)c12` (centres unmarked) [drawing 1510] yielded an IC50 greater than 1000 nM.

Same assay, conditions: Homo sapiens, MIA PaCa-2; at 30 μM, MIA-PACA2
Compound `Cc1cccc(OCC(=O)Nc2nnc(-c3ccccn3)[nH]2)c1` [drawing 1464] has an inhibition at 30 µM of 51 to 75%. For `O=C(Nc1nnc(-c2ccccn2)[nH]1)C1CCN(C(=O)c2cccs2)CC1` [drawing 1465], the inhibition at 30 µM was 76 to 100%. In the case of `COc1cn(-c2ccccc2)nc1C(=O)Nc1nnc(-c2ccccn2)[nH]1` [drawing 1466], the inhibition at 30 µM is reported as 51 to 75%. For `CN(CC(=O)Nc1nnc(-c2ccccn2)[nH]1)S(=O)(=O)c1ccccc1` [drawing 1467], the inhibition at 30 µM was 1 to 25%. With `O=C(Nc1nnc(-c2ccccn2)[nH]1)c1ccn(-c2cccc(Cl)c2)n1` [drawing 1468] the inhibition at 30 µM was 76 to 100%. For `CS(=O)(=O)N1CCCc2cc(C(=O)Nc3nnc(-c4ccccn4)[nH]3)ccc21` [drawing 1469], the inhibition at 30 µM was 76 to 100%. `O=C(Nc1nnc(-c2ccccn2)[nH]1)c1ccc(=O)[nH]n1` [drawing 1470] was tested, and the inhibition at 30 µM was 25 to 50%. Work on `COc1ccc(COCC(=O)Nc2nnc(-c3ccccn3)[nH]2)cc1` [drawing 1471] yielded an inhibition at 30 µM of 1 to 25%. `COc1ccc(OCc2nc(CNCCc3nnc4n3CCC4)cs2)cc1` [drawing 1472] gave an inhibition at 30 µM of 76 to 100%. In the case of `O=C(Nc1nc(-c2ccccn2)cs1)C1COc2ccccc2O1` (centres unmarked) [drawing 1473], the inhibition at 30 µM is reported as 76 to 100%. `O=C(Nc1nc(-c2ccccn2)cs1)c1cccc(F)c1` [drawing 1474] was tested, and the inhibition at 30 µM was 76 to 100%. Compound `Cc1cc(C(=O)Nc2nc(-c3ccccn3)cs2)no1` [drawing 1475] has an inhibition at 30 µM of 76 to 100%. Compound `O=C(Cn1c(=O)cnc2ccccc21)Nc1nc(-c2ccccn2)cs1` [drawing 1476] has an inhibition at 30 µM of 76 to 100%. `O=C(Nc1nc(-c2ccccn2)cs1)c1ccc2nccnc2c1` [drawing 1477] was tested, and the inhibition at 30 µM was 76 to 100%. In the case of `O=C(Nc1nc(-c2ccccn2)cs1)c1ccc2[nH]cnc2c1` [drawing 1478], the inhibition at 30 µM is reported as 76 to 100%. In the case of `CS(=O)(=O)Cc1ccc(C(=O)Nc2nc(-c3ccccn3)cs2)cc1` [drawing 1479], the inhibition at 30 µM is reported as 76 to 100%. In the case of `O=C(Nc1nc(-c2ccccn2)cs1)c1ccccn1` [drawing 1480], the inhibition at 30 µM is reported as 76 to 100%. `O=C(Cn1cnc2ccccc2c1=O)Nc1nc(-c2ccccn2)cs1` [drawing 1481] was tested, and the inhibition at 30 µM was 76 to 100%. In the case of `O=C(Nc1nc(-c2ccccn2)cs1)C1CC(=O)N(c2ccc3c(c2)OCCO3)C1` (centres unmarked) [drawing 1482], the inhibition at 30 µM is reported as 76 to 100%. `O=C(Nc1nc(-c2ccccn2)cs1)c1cccnc1` [drawing 1483] gave an inhibition at 30 µM of 76 to 100%. `O=C(Cc1cccc(F)c1)Nc1nc(-c2ccccn2)cs1` [drawing 1484] showed an inhibition at 30 µM of 76 to 100%. Work on `O=C(Nc1nc(-c2ccccn2)cs1)c1ccncc1` [drawing 1485] yielded an inhibition at 30 µM of 76 to 100%. Compound `O=C(Nc1nc(-c2ccccn2)cs1)c1ccc(F)cc1` [drawing 1486] has an inhibition at 30 µM of 76 to 100%. `COc1cccc(C(=O)Nc2nc(-c3ccccn3)cs2)c1` [drawing 1487] gave an inhibition at 30 µM of 76 to 100%. In the case of `COc1ccc(C(=O)Nc2nc(-c3ccccn3)cs2)cn1` [drawing 1488], the inhibition at 30 µM is reported as 76 to 100%. `COc1ccc(-c2csc3[nH]c(-c4ccccn4)nc(=O)c23)cc1` [drawing 1489] gave an inhibition at 30 µM of 76 to 100%. `O=c1nc(-c2ccccn2)[nH]c2scc(-c3cccs3)c12` [drawing 1490] showed an inhibition at 30 µM of 76 to 100%. `CNC(=O)c1sc2[nH]c(-c3ccccn3)nc(=O)c2c1C` [drawing 1491] showed an inhibition at 30 µM of 51 to 75%. Compound `O=c1nc(-c2ccccn2)[nH]c2scc(-c3ccccc3Cl)c12` [drawing 1492] has an inhibition at 30 µM of 76 to 100%. Work on `Cc1sc2[nH]c(-c3ccccn3)nc(=O)c2c1-c1ccccc1` [drawing 1493] yielded an inhibition at 30 µM of 76 to 100%. In the case of `O=c1nc(-c2ccccn2)[nH]c2ccsc12` [drawing 1494], the inhibition at 30 µM is reported as 1 to 25%. `O=c1nc(-c2ccccn2)[nH]c2sc(-c3ccccc3)cc12` [drawing 1495] gave an inhibition at 30 µM of 76 to 100%. Compound `CCN(CC)C(=O)c1sc2[nH]c(-c3ccccn3)nc(=O)c2c1C` [drawing 1496] has an inhibition at 30 µM of 76 to 100%. `Cc1c(C(=O)N(C)C)sc2[nH]c(-c3ccccn3)nc(=O)c12` [drawing 1497] showed an inhibition at 30 µM of 51 to 75%. Compound `O=c1nc(-c2ccccn2)[nH]c2c1CCC2` [drawing 1498] has an inhibition at 30 µM of 1 to 25%. For `O=c1nc(-c2ccccn2)[nH]c2c1sc1ccccc12` [drawing 1499], the inhibition at 30 µM was 76 to 100%. In the case of `Cc1cc2c(=O)nc(-c3cc(OCC(F)F)ccn3)[nH]c2s1` [drawing 1500], the inhibition at 30 µM is reported as 76 to 100%. Work on `COc1ccc(NC(=O)CCc2c(C)nc(-c3ccccn3)nc2O)cn1` [drawing 1501] yielded an inhibition at 30 µM of 76 to 100%. `Cc1nc(-c2ccccn2)nc(O)c1CCC(=O)NCCc1cccs1` [drawing 1502] was tested, and the inhibition at 30 µM was 76 to 100%. `Cc1nc(-c2ccccn2)nc(O)c1CCC(=O)Nc1cc(F)ccc1F` [drawing 1503] showed an inhibition at 30 µM of 76 to 100%. `Cc1nc(-c2ccccn2)nc(O)c1CCC(=O)NC1CCc2ccccc21` (centres unmarked) [drawing 1504] was tested, and the inhibition at 30 µM was 76 to 100%. `Cc1nc(-c2ccccn2)nc(O)c1CCC(=O)Nc1ccc(C(C)C)cc1` [drawing 1505] gave an inhibition at 30 µM of 76 to 100%. `COC(=O)c1cc(NC(=O)CCc2c(C)nc(-c3ccccn3)nc2O)ccc1Cl` [drawing 1506] was tested, and the inhibition at 30 µM was 76 to 100%. `Cc1nc(-c2ccccn2)nc(O)c1CCC(=O)Nc1cccc(OCC(=O)N2CCCC2)c1` [drawing 1507] gave an inhibition at 30 µM of 1 to 25%. `CCN(CC)S(=O)(=O)c1cc(C)c(C)c(NC(=O)CCc2c(C)nc(-c3ccccn3)nc2O)c1` [drawing 1508] was tested, and the inhibition at 30 µM was 76 to 100%. Work on `OCCNc1nc(-c2ccccn2)nc2scc(-c3ccccc3)c12` [drawing 1509] yielded an inhibition at 30 µM of 76 to 100%. With `COCC(C)Nc1nc(-c2ccccn2)nc2sc(C)c(-c3ccccc3)c12` (centres unmarked) [drawing 1510] the inhibition at 30 µM was 76 to 100%. In the case of `CCc1cc(NNC(=O)c2ccc(C#N)cc2)nc(-c2ccccn2)n1` [drawing 1511], the inhibition at 30 µM is reported as 76 to 100%. `COCCCn1ccc(Nc2cc(C)nc(-c3ccccn3)n2)n1` [drawing 1512] was tested, and the inhibition at 30 µM was 25 to 50%. `CC(O)CNc1nc(-c2ccccn2)nc2scc(-c3ccccc3)c12` (centres unmarked) [drawing 1513] gave an inhibition at 30 µM of 76 to 100%. Compound `NC(=O)C1(CNc2nc(-c3ccccn3)nc3c2CCC3)CCCC1` [drawing 1514] has an inhibition at 30 µM of 76 to 100%. In the case of `OCCOCCNc1nc(-c2ccccn2)nc2scc(-c3ccccc3)c12` [drawing 1515], the inhibition at 30 µM is reported as 76 to 100%. In the case of `Cc1sc2nc(-c3ccccn3)nc(NCCCO)c2c1-c1ccccc1` [drawing 1516], the inhibition at 30 µM is reported as 76 to 100%. `COC(=O)c1cccc(CN2CCC(CSc3ccccc3)C2)c1C#N` (centres unmarked) [drawing 1517] gave an inhibition at 30 µM of 76 to 100%. `COC(=O)c1cc(NCc2nc(CC(C)C)no2)ccc1Cl` [drawing 1518] was tested, and the inhibition at 30 µM was 76 to 100%. In the case of `Cc1cccc(CN(Cc2ccccn2)Cc2nccn2C)c1` [drawing 1519], the inhibition at 30 µM is reported as 76 to 100%. `Cc1ccc(CN(Cc2ccco2)C(=O)c2oc3ccccc3c2C)cc1` [drawing 1520] was tested, and the inhibition at 30 µM was 1 to 25%. Work on `Cc1ccc(O)c(CN(C)Cc2nccn2Cc2ccccc2)n1` [drawing 1521] yielded an inhibition at 30 µM of 76 to 100%. Compound `CCCCSc1nc(-c2cccs2)c(C(=O)C(F)(F)F)cc1C#N` [drawing 1523] has an inhibition at 30 µM of 76 to 100%. `CCC(C)(C)c1ccc(OCCCC(=O)NC(C(=O)OC)C(C)C)c(C(C)(C)CC)c1` (centres unmarked) [drawing 1524] was tested, and the inhibition at 30 µM was 76 to 100%. Work on `Oc1ccc(C2(c3cccc(Cl)c3)CCCC2)cc1` [drawing 1525] yielded an inhibition at 30 µM of 76 to 100%. `Cc1ccc(-c2ccc(Oc3ccc(C(F)(F)F)cn3)c(C)c2)cc1` [drawing 1526] was tested, and the inhibition at 30 µM was 76 to 100%. For `CCOc1cc(C(=O)Oc2c(C)ccc(C)c2C)cc(OCC)c1OCC` [drawing 1527], the inhibition at 30 µM was 76 to 100%. `COC(=O)c1ccc(C(=O)NCC2(c3ccccc3OC)CCCC2)nc1` [drawing 1528] showed an inhibition at 30 µM of 76 to 100%. Work on `CCOc1cc(S(=O)(=O)N(Cc2ccccc2)Cc2ccccc2)c(OCC)cc1C` [drawing 1529] yielded an inhibition at 30 µM of 76 to 100%. In the case of `COc1ccc(CN(CC[S+]([O-])c2cc(Cl)ccc2Cl)C2CC2)cc1` (centres unmarked) [drawing 1530], the inhibition at 30 µM is reported as 51 to 75%. `CCCOc1ccc2ccccc2c1CN(C)S(=O)(=O)N1CC(C)OC(C)C1` (centres unmarked) [drawing 1531] was tested, and the inhibition at 30 µM was 76 to 100%. Work on `O=S(=O)(Oc1cc(C(F)(F)F)cc(C(F)(F)F)c1)N1CCc2ccccc2C1` [drawing 1532] yielded an inhibition at 30 µM of 25 to 50%. `COC(=O)C(C)CN(Cc1cc(Br)ccc1[N+](=O)[O-])C1CC1` (centres unmarked) [drawing 1534] was tested, and the inhibition at 30 µM was 1 to 25%. `CC(C1CC1)N(CC(F)(F)F)C(=O)Cc1ccc(-c2ccccc2)cc1` (centres unmarked) [drawing 1535] was tested, and the inhibition at 30 µM was 76 to 100%. In the case of `COC(=O)C(C)CN(Cc1ccccc1)c1nc(C(F)(F)F)ccc1C#N` (centres unmarked) [drawing 1536], the inhibition at 30 µM is reported as 51 to 75%. For `N#CC1(c2ccc(C(=O)N3CCCC3CO)cc2)CC1` (centres unmarked) [drawing 1537], the inhibition at 30 µM was 51 to 75%. `CCN(CC)S(=O)(=O)c1ccc(NCCOC)c(C(=O)NCCSCc2ccc(C)cc2)c1` [drawing 1538] was tested, and the inhibition at 30 µM was 76 to 100%. `CSc1nc(C2CC2)cc(C(=O)NCCc2ccc(S(=O)(=O)NC(=O)c3cc(C4CC4)nc(SC)c3C#N)cc2)c1C#N` [drawing 1539] showed an inhibition at 30 µM of 1 to 25%. `CC(C)C1=C(O)C2(CC2c2ccc(-c3ccccc3)cc2)C(C)CC1` (centres unmarked) [drawing 1540] showed an inhibition at 30 µM of 76 to 100%. For `Cc1cccc(C)c1OCCOC(=O)c1ccccc1SCCOc1c(C)cccc1C` [drawing 1541], the inhibition at 30 µM was 51 to 75%. Compound `Oc1nc(-c2ccccn2)nc2c1CCCN2` [drawing 1542] has an inhibition at 30 µM of 1 to 25%. Compound `O=C(COc1ccccc1)N1CCCc2c(O)nc(-c3ccccn3)nc21` [drawing 1543] has an inhibition at 30 µM of 76 to 100%.
